Key:
[1] = test system: PDE-4; conditions: cited from earlier work
[2] = target: T1, PDE-4A (Homo sapiens, UniProt P27815); test: PDE-4A inhibitory assay (SPA); type: biochemical
T1 construct: PDE-4A catalytic domain comprising amino acids 342-704; made in house; host or cells: Escherichia coli
Summary of the method: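 Human recombinant PDE-4A catalytic domain (aa 342-704), E. coli-expressed. SPA with 1 μM [^3H]-cAMP substrate in 100 mM Tris-HCl pH 7.5, 5 mM MgCl2, 1% DMSO; 20 min at 22° C. Non-specific activity with 100 μM rolipram subtracted.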

[3] = test system: TNFα release; test: LPS-induced TNFα release in diluted human blood (ELISA); type: cell-based; conditions: LPS 1 μg/ml, human blood diluted 1:5, 24 h; read-out: IC50 value in the TNFα inhibitory assay
From the text: Isolated leukocytes can be stimulated for the release of cytokines in different ways. Lipopolysaccharides (LPS) are a stimulus for the investigation of the TNFα release. LPS is part of bacterial cell walls and is released when the bacteria are killed (by antibiotics or the natural immune system). LPS stimulates in particular the activity of phagocytizing leukocytes (tissue macrophages, granulocytes, monocytes) and causes the infiltration of leukocytes from the peripheral blood into the affected tissue. A cytokine of special significance for these mechanisms is TNFα which is secreted in large amounts by the affected cells. The main source are here monocytes and macrophages. TNFα initiates and prolongs the inflammatory process in cooperation with other mediators.
For the investigation of the effect on the LPS-induced TNFα release a method was used which was described by Marx, D., Tassabehji, M., Heer, S., Hüttenbrink, K.-B., and I. Szelenyi, Pulmonary Pharmacology & Therapeutics (2002) 15, 7-15. The method is briefly: Human blood was taken from various donors, rendered incoagulable by the addition of 10 mM Na citrate and diluted 1:5 with RPMI 1640 cell culture medium. The test substances were added to the blood samples at various concentrations. 15 min later, the leukocytes were stimulated by the addition of lipopolysaccharides (LPS) from Salmonella abortus equi at a final concentration of 1 μg/ml. After the incubation of the test batches at 37° C. and under 5% CO2 in a water-saturated air for 24 h, the blood was centrifuged and the TNFα concentration in the cell-free supernatant was accurately measured using a purchasable ELISA (BD Biosciences) according to the manufacturer's instructions.

[4] = test system: murine neuroblastoma cell line N2a; test: Induction of axon growth in N2a cells; type: cell-based; conditions: 1 μM in the test batch, after 72 h, listed as 7-(3,4-dimethoxyphenyl)-4-ethoxy-9-methyl-2-piperazin-1-yl-pyrido[3′,2′:4,5]-thi
From the text: The inventors have tested some PDE4 inhibitors according to the invention for induction of axon growth with the murine neuroblastoma cell line N2a. It turned out that in particular the substances 4-ethoxy-9-ethyl-7-(3,4-methylenedioxyphenyl)-2-piperazin-1-yl-pyrido[3′,2′:4,5]thieno[3,2-d]-pyrimidine and 7-(3,4-dimethoxyphenyl)-4-ethoxy-9-methyl-2-piperazin-1-yl-pyrido[3′,2′:4,5]thieno[3,2-d]pyrimidine hydrochloride were able to induce the growth of long processes (“axons”) having a length of up to […] at concentrations of 1 μM in the test batch after 72 h (FIGS. 1a and 1b).

[5] = test system: CLL cells; test: Cytotoxicity on CLL cells, formazan reduction assay (MTT test); conditions: 1 μM, 24 h incubation of the patient's blood, primary CLL
Method: The positive control used was fludarabine which is employed for CLL as a standard chemotherapeutic agent.
The cytotoxicity of the CLL cells was determined by means of a commercially available formazan reduction assay (MTT test) after 24 h of incubation of the patient's blood with the active substances.

T1 sequence (P27815 342-704): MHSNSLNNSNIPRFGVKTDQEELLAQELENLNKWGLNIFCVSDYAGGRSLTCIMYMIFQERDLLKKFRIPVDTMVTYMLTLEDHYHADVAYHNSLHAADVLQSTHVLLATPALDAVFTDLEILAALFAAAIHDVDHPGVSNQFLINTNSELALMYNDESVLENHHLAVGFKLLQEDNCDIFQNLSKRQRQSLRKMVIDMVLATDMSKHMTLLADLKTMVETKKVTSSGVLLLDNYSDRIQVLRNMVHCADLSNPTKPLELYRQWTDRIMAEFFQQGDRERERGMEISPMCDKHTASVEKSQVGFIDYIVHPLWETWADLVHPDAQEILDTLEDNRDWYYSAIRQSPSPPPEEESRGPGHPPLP

IC50 [2] [nM]	melting point	Compound	other results
–	190 °C (dec.)	CCS(=O)(=O)c1nc(N2CCNCC2)c2sc3nc(-c4ccccc4)cc(C)c3c2n1 [Example 15, 2-ethylsulfonyl-9-methyl-7-phenyl-4-piperazin-1-yl-pyrido-[3′,2′:4,5]thieno[3,2-d]pyrimidine]	–
–	> 310 °C	CCOc1nc(N2CCNCC2)c2sc3nc(-c4ccccc4)nc(C)c3c2n1 [Example 2, 2-ethoxy-9-methyl-4-piperazin-1-yl-7-phenyl-thieno[2,3-d:4,5-d′]dipyrimidine]	–
–	150 to 154 °C	CCSc1nc(N2CCNCC2)c2sc3nc(-c4ccccc4)cc(C)c3c2n1 [Example 13, 2-ethylthio-9-methyl-7-phenyl-4-piperazin-1-yl-pyrido-[3′,2′:4,5]thieno[3,2-d]pyrimidine]	–
–	149 to 150 °C	C/C=C/C=C/C(O)c1ccc(-c2nc(C)c3c(n2)sc2c(OCC)nc(N4CCNCC4)nc23)cc1 (centres unmarked) [Example 6, 4-ethoxy-7-(4-[{2E,4E}-1-hydroxyhexa-2,4-dienyl]phenyl)-9-methyl-2-piperazin-1-yl-thieno[2,3-d:4,5-d′]dipyrimidine]	–

Further lines, the molecule ahead of its results:

Compound	IC50 [2] [nM]	melting point	other results
O=C(Nc1c(Cl)cncc1Cl)c1ccc(OC(F)F)c(OCC2CC2)c1 [roflumilast]	–	–	IC50 [1]: 0.8 nM
C=Cc1ccc(-c2nc(C)c3c(n2)sc2c(OCC)nc(N4CCNCC4)nc23)cc1 [4-Ethoxy-9-methyl-2-piperazin-1-yl-7-(4-vinyl-phenyl)-thieno[2,3-d:4,5-d′]dipyrimidine]	2 to 50	165 to 166 °C	–
CCOc1nc(N2CCNCC2)nc2c1oc1nc(-c3ccccc3)cc(C)c12 [4-Ethoxy-7-phenyl-9-methyl-2-(piperazin-1-yl)-pyrido[3′,2′:4,5]furo[3,2-d]pyrimidine]	2 to 50	131 to 132 °C	–
CCOc1nc(N2CCNCC2)nc2c1sc1nc(-c3ccc(OC)c(OC)c3)cc(C)c12.Cl [4-Ethoxy-7-(3,4-dimethoxy-phenyl)-9-methyl-2-(piperazin-1-yl)-pyrido[3′,2′:4,5]thieno[3,2-d]pyrimidine-hydrochloride]	–	–	IC50 [3]: < 2000 nM; length of induced long processes (axons) [4]: ≤ 300 µm
Nc1nc(F)nc2c1ncn2[C@@H]1O[C@H](CO)[C@@H](O)[C@@H]1O [fludarabine]	–	–	cytotoxicity, share of the cells [5]: ≤ 60%
CCOc1nc(N2CCNCC2)c2oc3nc(-c4ccccc4)cc(C)c3c2n1 [2-Ethoxy-7-phenyl-9-methyl-4-(piperazin-1-yl)-pyrido[3′,2′:4,5]furo[3,2-d]pyrimidine]	2 to 50	175 °C	–
CCOc1nc(N2CCNCC2)nc2c1sc1nc(-c3ccc(C(O)CO)cc3)nc(C)c12 (centres unmarked) [7-(4-[1,2-Dihydroxyethyl]-phenyl)-4-ethoxy-9-methyl-2-piperazin-1-yl-thieno[2,3-d:4,5-d′]dipyrimidine]	2 to 50	> 300 °C	IC50 [3]: < 2000 nM

From patent US8058285B2, “Substituted pyrido [3′, 2′: 4, 5] thieno [3, 2-D] pyrimidines and pyrido [3′, 2′: 4, 5] furo [3, 2-D] pyrimidines used as inhibitors of the PDE-4 and/or the release of TNF-ALPHA” (The Medicines Company (Leipzig) GmbH, priority 2004, dated 2011)
